Test results taken from article PMC10349806 (Nature Communications, 2023).
Where a chain is given by its changes, count along the chain named. Where “and” joins values, the source holds several entries; their conditions need not be identical. Equal values may be shown once.

Legend:
[1] = target: T1, PfCRT variant D338A (Plasmodium falciparum, UniProt Q9N623, A220S/D338A/I356T/K76T/M74I/N326S/N75E/Q271E/R371I); experiment: CQ uptake assay, oocytes expressing D338A; type: cell-based
T1 sequence (Q9N623 1-424 M74I/N75E/K76T/A220S/Q271E/N326S/D338A/I356T/R371I): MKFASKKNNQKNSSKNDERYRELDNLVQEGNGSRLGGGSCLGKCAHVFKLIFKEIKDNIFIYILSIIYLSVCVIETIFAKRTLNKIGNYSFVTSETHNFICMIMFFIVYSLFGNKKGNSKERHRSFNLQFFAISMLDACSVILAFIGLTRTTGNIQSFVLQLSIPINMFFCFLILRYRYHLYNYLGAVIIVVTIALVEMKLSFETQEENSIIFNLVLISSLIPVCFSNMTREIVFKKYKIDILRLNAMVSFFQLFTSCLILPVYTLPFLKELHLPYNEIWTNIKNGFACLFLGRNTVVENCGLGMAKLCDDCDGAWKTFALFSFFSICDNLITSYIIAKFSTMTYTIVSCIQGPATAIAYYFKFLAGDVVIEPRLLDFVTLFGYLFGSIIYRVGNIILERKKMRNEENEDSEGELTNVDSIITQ
Procedure: (§1) Site-directed mutagenesis of PfCRT^Dd2 was performed as described using the megaprimer method with overlap extension[21],[54]. The primer pairs used are listed in Supplementary Table 6. Please note that a codon-optimized and oocyte-adapted version of PfCRT^Dd2 was used[22] (Supplementary Fig. 16). The resulting DNA fragment was cloned into the SP64T expression vector and verified by sequencing.
(§2) Oocytes were obtained as described previously. Briefly, adult (>2 years old) female X. laevis frogs (NASCO) were anesthetized in a cooled solution of ethyl 3-amino benzoate methanesulfonate (0.1%, w/v), followed by a surgical removal of parts of the ovary. The ovary lobes were carefully dissected and small pieces of oocytes were incubated in Ca^2+-free ND96 buffer (96 mM NaCl, 2 mM KCl, 1 mM MgCl2 buffered with 5 mM HEPES/NaOH, pH 7.5) supplemented with collagenase D (0.1%, w/v; Roche), BSA (0.5%, w/v), and 9 mm Na2HPO4 at 18 °C for 14-16 h while gentle shaking. After incubation, the oocytes were carefully washed several times with ND96 buffer (96 mM NaCl, 2 mM KCl, 1.8 mM CaCl2, 1 mM MgCl2 buffered with 5 mM HEPES/NaOH, pH 7.5) supplemented with 100 mg l^−1 gentamycin). Defolliculated and healthy-looking stage V-VI oocytes were manually selected for RNA microinjection. The RNA was generated as following: The codon-optimized sequences of PfCRT variants were cloned into the pSP64T expression vector. After vector linearization using the restriction endonucleases BamHI or SalI (New England Biolabs), transcription was performed using the in vitro SP6 mMessage mMachine Kit (Ambion)[34]. The obtained RNA was kept at −80 °C and diluted with nuclease-free water to a concentration of 0.6 μg μl^−1. Precision-bore glass capillary tubes (3.5-inch glass capillaries; Drummond Scientific Co.) were pulled on a vertical puller (P-87 Flaming/Brown micropipette puller, Sutter Instrument Co.), graduated, and placed on a microinjector (Nanoject II Auto-Nanoliter Injector, Drummond Scientific Co.). 50 nl of nuclease-free water alone (control oocytes) or 50 nl of 0.6 μg μl^−1 RNA were injected under stereomicroscopic control. Injected oocytes were incubated for 46–72 h at 18 °C with twice-daily buffer changes before usage in experiments.
(§3) Drug uptake assays were performed as described previously[21],[22],[24],[34]. […] The direction of radio-labeled drug transport is here from the mostly acidic extracellular solution (pH 4.5 or 6.0, as indicated) into the oocyte cytosol (pH ∼ 7.2), which corresponds to the efflux of drug from the acidic digestive vacuole (pH 5.2) into the parasite cytoplasm (pH 7.2). The topology of PfCRT in the oolemma is such that both the N- and C-terminus face the extracellular milieu[3],[22]. In the parasite, the N- and C-terminus face the lumen of the digestive vacuole. CQ uptake kinetics were performed by incubating oocytes in ND96 buffer adjusted to a pH of 4.5, 5.0, 5.5, or 6.0 and supplemented with 50 nM [^3H]CQ and one of 7 different CQ concentrations (10 µM, 50 µM, 100 µM, 200 µM, 300 µM, 400 µM, 500 µM CQ). The reaction was stopped at the 60 min time point, which is in the linear uptake range[22],[34] (Supplementary Fig. 17). For determination of the amount of drug uptake for each oocyte, the reaction medium was removed and the oocytes were washed three times with 2 ml of ice-cold ND96 buffer. Each oocyte was individually transferred to a scintillation vial containing 5% sodium dodecyl sulfate (200 μl) for lysis. The radioactivity of each sample was measured using a liquid scintillation analyzer Tri-Carb 4910 TR (PerkinElmer). Oocytes that were injected with water instead of RNA were analyzed in parallel, representing the uptake of a drug by diffusion and/or endogenous permeation pathways. The resulting value represents the “background“ level of drug accumulation in oocytes (in-depth discussion in[22]). […]

[2] = target: T2, PfCRT variant D377A (Plasmodium falciparum, UniProt Q9N623, A220S/D377A/I356T/K76T/M74I/N326S/N75E/Q271E/R371I); experiment: CQ uptake assay, oocytes expressing D377A; type: cell-based
T2 sequence (Q9N623 1-424 M74I/N75E/K76T/A220S/Q271E/N326S/I356T/R371I/D377A): T1 sequence (Q9N623 1-424 M74I/N75E/K76T/A220S/Q271E/N326S/D338A/I356T/R371I) with A338D, D377A
Procedure: as §1, §2, §3

[3] = D338A, 50 µM CQ, 1 h, mean ± SEM
[4] = pH 4.5, single replicates, Fig 1d left
[5] = pH 6.0, single replicates, Fig 1d left
[6] = D377A, 50 µM CQ, 1 h, mean ± SEM

## CCN(CC)CCCC(C)Nc1ccnc2cc(Cl)ccc12 (stereo not drawn) [CQ, chloroquine]
[1]; [3]
  Activity at pH 4.5: 2.35 ± 0.19 pmol h-1 oocyte-1
  Activity at pH 6.0: 5.20 ± 0.52 pmol h-1 oocyte-1
[1]; D338A, CQ transport at pH 4.5 / pH 6.0
  R-value: 0.47 ± 0.06
[1]; [4]
  D338A transport activity pH 4.5: 2.81 pmol oocyte-1 h-1 and 2.11 pmol oocyte-1 h-1 and 2.14 pmol oocyte-1 h-1
[1]; pH 4.5 vs pH 6.0, Fig 1d left
  D338A R-value: 0.58 and 0.33 and 0.49
[1]; [5]
  D338A transport activity pH 6.0: 4.85 pmol oocyte-1 h-1 and 6.43 pmol oocyte-1 h-1 and 4.33 pmol oocyte-1 h-1
[2]; [6]
  Activity at pH 4.5: 0.62 ± 0.01 pmol h-1 oocyte-1
  Activity at pH 6.0: 1.44 ± 0.13 pmol h-1 oocyte-1
[2]; D377A, CQ transport at pH 4.5 / pH 6.0
  R-value: 0.44 ± 0.04
[2]; [4]
  D377A transport activity pH 4.5: 0.64 pmol oocyte-1 h-1 and 0.61 pmol oocyte-1 h-1
[2]; pH 4.5 vs pH 6.0, Fig 1d left
  D377A R-value: 0.44 and 0.36 and 0.52
[2]; [5]
  D377A transport activity pH 6.0: 1.44 pmol oocyte-1 h-1 and 1.71 pmol oocyte-1 h-1 and 1.17 pmol oocyte-1 h-1
